Results on five compounds are retold here after patent publication US20250333482A1, “MODULATORS OF MESOTHELIAL ECM MOVEMENT” (Helmholtz Zentrum München Deutsches Forschungszentrum Für …, priority 2021, published 2025).

In one test the test system is TGFβ signaling. The test can be described thus: Ex vivo mouse lung biopsies treated with granulocytes, then TGFβ inhibitors. Type of test: cell-based. The conditions noted are these: for matrix invasion: in the presence of granulocytes; for phosphorylated SMAD (pSMAD): mouse lung biopsies treated with granulocytes. The method, then:
(§1) C57BL/6J male mice (6-8 weeks age) used to study the movement of lung matrix. After organ withdrawal 4 mm biopsy punches of murine lungs were generated. To obtain ectopic labeling of matrix, the inventors generated a labelling solution by mixing NHS-ester 1:1 with 100 mM pH 9.0 sodium bicarbonate buffer. Sterile Whatman filter paper (Sigma Aldrich) biopsy punches where soaked in NHS-labelling solution, and locally placed on the lung biopsy surface. After one minute, the labelling punch was removed. Mouse lung biopsies were cocultured in the RPMI medium (10% FBS with 1% Pen/Strep and 0.1% AmB) consist of different sub types of immune cells (0.1×10^6 cells/biopsy) isolated from the healthy and idiopathic pulmonary fibrosis human donors. Mouse lung biopsies with immune cells were then cultured in the ex vivo condition provided with 5% C02 at 37° C.
(§2) After 48 hours, mouse lung biopsies were fixed with the 4% formalin and incubated for overnight at 4° C. followed by PBS wash. Human lung tissues where obtained, labelled, and cultivated for 24 hours as described above.
(§3) Matrix invasion was calculated using histological sections, quantifying FITC signal per area via ImageJ (1.52i). Quantification of immunolabeling was performed in randomly distributed ROIs/FOVs. Multiphoton images were analyzed using Fiji plugins Fraklac V. 2.5 and LocalThickness_V-4.0.2.
The inventors sought to characterize the signaling pathways by which immune cells trigger matrix invasion and fibrosis and we naturally sought to investigate the known chief proponent, TGFβ. They wondered whether the fibrotic cascade of immune cells might start with mesothelial TGFβ expression. Mouse lung biopsies were treated with granulocytes, followed by administering two TGFβ inhibitors, Repsox and LDN-212854, in separate experiments (FIG. 2A). Inhibition of TGFβ signaling in both chemical assays decreased phosphorylated SMAD (pSMAD), which is the major mediator of TGFβ-induced signaling. Furthermore, inhibiting TGFβ reduced matrix invasion, even in the presence of granulocytes. Moreover, adding granulocytes alone led to increased phosphorylated SMAD signaling in mesothelium. These findings indicate granulocytes trigger TGFβ expression in mesothelium to initiate matrix accumulation and irrigation.

The test system of the next test is C57BL/6J mice. The test can be described thus: Pharmacologic treatment regime in the bleomycin-induced lung fibrosis model. Type of test: in vivo, mouse. The following applies: for pleural matrix pools: after bleomycin-induced injury. The method, then: The inventors generated a labelling solution by mixing 5 μl NHS-ester (25 mg/ml) with 5 μl of 100 mM pH 9.0 sodium bicarbonate buffer, combining with 40 μl PBS to a total volume of 50 μl. Labelling solution was applied intrapleurally (for lung and/or heart fibrosis model) under isoflurane anesthesia with a 30 G cannula. Abdominal labeling was performed by injecting 100 μl of labelling solution intra-peritoneal (for liver and/or kidney fibrosis model).
The oropharyngeal administration of bleomycin for the induction of pulmonary fibrosis is carried out in an antagonistic anesthesia in C57BL/6J mice of both sexes (6-8 weeks age). After the toe-pinch reflex is absent, the mouse is placed on the incisors of the upper jaw and thus kept in an upright position. The tongue is carefully fixed with is held to the side with tweezers and the nose of the animal is covered with tweezers. By keeping the nose closed, the mouse is forced to breathe through the mouth. With the help of a pipette, bleomycin is dissolved in a dosage of 2 units/kg KGW in 80 μl PBS carefully into the throat. As soon as the animal has inhaled the solution, it will be
Hot plate transferred (duration approx. 30 to 60 seconds). After antagonization animals were housed for 14 days. Nintedanib was added 1 hour before bleomycin installation and every other day intra peritoneal 10 μM.
Pirfenidone (0.07 mg/kg), Nintedanib (0.21 mg/kg) and Cathepsin Inhibitor B (0.15 mg/kg) were injected 1 hour before bleomycin installation and every other day intra peritoneal in a volume of 100 μl in physiological saline solution.
as §3

In test [1] the test system is fibrotic human lung tissue. The test can be described thus: Ex vivo matrix flow in fibrotic human lung tissue. Type of test: cell-based. The method, then:
All tissues (PFA, ST) used in this study were obtained with properly informed consent of patients. All experimental procedures were performed in accordance with the Ethics committee vote number/Study protocol number: 333-10 Parent Proposal number: BA34/2018.
as §1, §2

[2] abbreviates: bleomycin, intra peritoneal 1 hour before and every other day.

On to `c1cc(-c2cnn3cc(-c4ccc(N5CCNCC5)cc4)cnc23)c2cccnc2c1` [LDN-212854], for which, in the test with TGFβ signaling, the matrix invasion result is listed as “reduced” and the “phosphorylated SMAD (pSMAD)” value is listed as “decreased”.

As to `Cc1ccc(=O)n(-c2ccccc2)c1` [Pirfenidone], the pleural matrix pools entry in the test on C57BL/6J mice is “rescue”. For the same compound, in the test on C57BL/6J mice (setting [2]), the bleomycin-induced mortality result is “prevent”, the “matrix invasion into lungs (matrix movements)” value (from here on “matrix invasion into lungs”) was “inhibiting matrix movements” and the “survival rates of lung injured animals” value is listed as “comparable”.

Regarding `Cc1cccc(-c2[nH]ncc2-c2ccc3ncccc3n2)n1` [Repsox], in the test on TGFβ signaling, the matrix invasion entry was “reduced” and the “phosphorylated SMAD (pSMAD)” value is given as “decreased”.

As to `CC(NC(=O)[C@H](Cc1ccccc1)NC(=O)OCc1ccccc1)C(=O)CF` (stereo partly shown) [Z-FA-FMK], in the test on C57BL/6J mice, the pleural matrix pools result is on record as “rescue”. In addition, in the test with C57BL/6J mice (setting [2]), the bleomycin-induced mortality result is listed as “abrogated”, the fibrosis development entry is reported as “completely prevented”, the “matrix invasion into lungs” value is recorded as “completely prevented” and the “survival rates of lung injured animals” value came out at 100%. Besides, the bleomycin-induced mortality result in the test on C57BL/6J mice (bleomycin, intra peritoneal 1 hour before and every other day, listed as Cathepsin B inhibitor) is “prevent”. For the same compound, the fluid matrix flows result in test [1] was “blocks”.

For the compound `COC(=O)c1ccc2c(c1)NC(=O)/C2=C(\Nc1ccc(N(C)C(=O)CN2CCN(C)CC2)cc1)c1ccccc1` [Nintedanib], in the test with C57BL/6J mice, the pleural matrix pools result is on record as “rescue”. For the same compound, in the test on C57BL/6J mice (setting [2]), the bleomycin-induced mortality result is listed as “prevent”, the “matrix invasion into lungs” value was “inhibiting matrix movements” and the “survival rates of lung injured animals” value is on record as “comparable”.
